# Counter-ions that a name gives are not always drawn.
# What was measured:
# [1] = target: T1, EZH2 within the PRC2 complex (Homo sapiens (Human), UniProt Q15910); assay: EZH2 methyltransferase SPA, biotinylated histone H3K27 peptide substrate (Assay Protocol 2); assay type: biochemical; conditions: 3H-SAM, ≦10 nM approaches limit of detection
# Outline: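 Five-member human PRC2 complex (FLAG-EZH2, EED, SUZ12, RbAp48, AEBP2) co-expressed in Sf9 cells, 1 nM final, with 10 uM biotinylated H3K27 peptide, 0.15 uM 3H-SAM plus 2.85 uM cold SAM, pH 8, 60 min at rt. Quenched with cold SAM; SPA signal; IC50 from 11-point curves vs DMSO.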
# [2] = target: T1, EZH2 within the PRC2 complex; assay: EZH2 methyltransferase SPA, mononucleosome substrate (Assay Protocol 1); assay type: biochemical; conditions: HeLa mononucleosome substrate, 3H-SAM, ≦10 nM approaches limit of detection
# Description: Compounds contained herein were evaluated for their ability to inhibit the methyltransferase activity of EZH2 within the PRC2 complex. Human PRC2 complex was prepared by co-expressing each of the 5 member proteins (FLAG-EZH2, EED, SUZ12, RbAp48, AEBP2) in Sf9 cells followed by co-purification. Enzyme activity was measured in a scintillation proximity assay (SPA) where a tritiated methyl group is transferred from 3H-SAM to a lysine residue on Histone H3 of a mononucleosome, purified from HeLa cells. Mononucleosomes were captured on SPA beads and the resulting signal is read on a ViewLux plate reader.
# Part A. Compound Preparation
# • 1. Prepare 10 mM stock of compounds from solid in 100% DMSO. • 2. Set up an 11-point serial dilution (1:3 dilution, top concentration 10 mM) in 100% DMSO for each test compound in a 384 well plate leaving columns 6 and 18 for DMSO controls. • 3. Dispense 100 nL of compound from the dilution plate into reaction plates (Grenier Bio-One, 384-well, Cat#784075). Part B. Reagent Preparation Prepare the following solutions: • 1. 50 mM Tris-HCl, pH 8: Per 1 L of base buffer, combine 1 M Tris-HCl, pH 8 (50 mL) and distilled water (950 mL). • 2. 1× Assay Buffer: Per 10 mL of 1× Assay Buffer, combine 50 mM Tris-HCl, pH 8 (9958 uL), 1 M MgCl2 (20 uL), 2 M DTT (20 uL), and 10% Tween-20 (2 uL) to provide a final concentration of 50 mM Tris-HCl, pH 8, 2 mM MgCl2, 4 mM DTT, 0.002% Tween-20. • 3. 2× Enzyme Solution: Per 10 mL of 2× Enzyme Solution, combine 1× Assay Buffer and PRC2 complex to provide a final enzyme concentration of 10 nM. • 4. SPA Bead Suspension: Per 1 mL of SPA Bead Suspension, combine PS-PEI coated LEADSeeker beads (40 mg) and H2O (1 mL) to provide a final concentration of 40 mg/mL. • 5. 2× Substrate Solution: Per 10 mL of 2× Substrate Solution, combine 1× Assay Buffer (9728.55 uL), 800 ug/mL mononucleosomes (125 uL), 1 mM cold SAM (4 uL), and 7.02 uM 3H-SAM (142.45 uL; 0.55 mCi/mL) to provide a final concentration of 5 ug/mL nucleosomes, 0.2 uM cold SAM, and 0.05 uM 3H-SAM. • 6. 2.67× Quench/Bead Mixture: Per 10 mL of 2.67× Quench/Bead Mixture, combine ddH2O (9358 uL), 10 mM cold SAM (267 uL), 40 mg/mL Bead Suspension (375 uL) to provide a final concentration of 100 uM cold SAM and 0.5 mg/mL SPA beads. Part C. Assay Reaction in 384-well Grenier Bio-One Plates Compound Addition • 1. Dispense 100 nL/well of 100× Compound to test wells (as noted above). • 2. Dispense 100 nL/well of 100% DMSO to columns 6 & 18 for high and low controls, respectively. Assay • 1. Dispense 5 uL/well of 1× Assay Buffer to column 18 (low control reactions). • 2. Dispense 5 uL/well of 2× Enzyme Solution to columns 1-17, 19-24. • 3. Spin assay plates for ˜1 min at 500 rpm. • 4. Stack the assay plates, covering the top plate. • 5. Incubate the compound/DMSO with the enzyme for 30 min at room temperature. • 6. Dispense 5 uL/well of 2× Substrate Solution to columns 1-24. • 7. Spin assay plates for ˜1 min at 500 rpm. • 8. Stack the assay plates, covering the top plate. • 9. Incubate the assay plates at room temperature for 1 hour. Quench/Bead Addition • 1. Dispense 5 uL/well of the 3× Quench/Bead Mixture to columns 1-24. • 2. Seal the top of each assay plate with adhesive TopSeal. • 3. Spin assay plates for ˜1 min at 500 rpm. • 4. Equilibrate the plates for >20 min. Read plates • 1. Read the assay plates on the Viewlux Plate Reader utilizing the 613 nm emission filter with a 300 s read time.
# Reagent addition can be done manually or with automated liquid handler. • The final DMSO concentration in this assay is 1%. • The positive control is in column 6; negative control is in column 18. • Final starting concentration of compounds is 100 µM. Results
# Percent inhibition was calculated relative to the DMSO control for each compound concentration and the resulting values were fit using standard IC50 fitting parameters within the ABASE data fitting software package.
# T1 sequence (Q15910 whole entry): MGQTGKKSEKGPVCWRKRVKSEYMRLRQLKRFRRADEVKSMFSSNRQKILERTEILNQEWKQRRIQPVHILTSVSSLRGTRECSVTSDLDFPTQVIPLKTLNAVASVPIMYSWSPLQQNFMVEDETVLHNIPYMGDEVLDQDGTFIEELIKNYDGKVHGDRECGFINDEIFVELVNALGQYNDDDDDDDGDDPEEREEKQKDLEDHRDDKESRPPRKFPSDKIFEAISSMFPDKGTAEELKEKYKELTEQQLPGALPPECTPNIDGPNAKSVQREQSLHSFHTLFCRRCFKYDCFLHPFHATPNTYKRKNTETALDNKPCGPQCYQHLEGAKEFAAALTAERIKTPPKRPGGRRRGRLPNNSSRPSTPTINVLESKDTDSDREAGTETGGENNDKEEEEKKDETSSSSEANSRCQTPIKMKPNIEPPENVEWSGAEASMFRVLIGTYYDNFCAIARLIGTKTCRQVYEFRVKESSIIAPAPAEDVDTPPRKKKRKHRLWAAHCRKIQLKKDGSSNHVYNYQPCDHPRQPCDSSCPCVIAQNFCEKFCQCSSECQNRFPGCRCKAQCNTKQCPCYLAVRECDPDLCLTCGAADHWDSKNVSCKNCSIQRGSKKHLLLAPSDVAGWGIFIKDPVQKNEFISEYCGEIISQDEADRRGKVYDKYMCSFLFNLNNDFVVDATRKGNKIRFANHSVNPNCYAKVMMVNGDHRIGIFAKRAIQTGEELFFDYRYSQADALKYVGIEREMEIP
# T1 sequence (O75530 whole entry partner): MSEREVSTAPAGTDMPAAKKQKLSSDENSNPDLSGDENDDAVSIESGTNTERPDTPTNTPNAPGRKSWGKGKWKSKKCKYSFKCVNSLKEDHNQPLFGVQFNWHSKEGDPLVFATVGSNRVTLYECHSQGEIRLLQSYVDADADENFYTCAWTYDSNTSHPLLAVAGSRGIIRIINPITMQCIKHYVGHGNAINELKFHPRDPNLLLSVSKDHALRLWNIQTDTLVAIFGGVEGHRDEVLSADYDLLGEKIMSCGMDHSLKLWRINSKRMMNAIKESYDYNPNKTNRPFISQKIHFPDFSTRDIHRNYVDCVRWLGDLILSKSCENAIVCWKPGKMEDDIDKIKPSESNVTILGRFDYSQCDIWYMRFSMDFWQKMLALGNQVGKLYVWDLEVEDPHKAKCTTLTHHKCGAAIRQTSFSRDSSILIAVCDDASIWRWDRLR
# T1 sequence (Q15022 whole entry partner): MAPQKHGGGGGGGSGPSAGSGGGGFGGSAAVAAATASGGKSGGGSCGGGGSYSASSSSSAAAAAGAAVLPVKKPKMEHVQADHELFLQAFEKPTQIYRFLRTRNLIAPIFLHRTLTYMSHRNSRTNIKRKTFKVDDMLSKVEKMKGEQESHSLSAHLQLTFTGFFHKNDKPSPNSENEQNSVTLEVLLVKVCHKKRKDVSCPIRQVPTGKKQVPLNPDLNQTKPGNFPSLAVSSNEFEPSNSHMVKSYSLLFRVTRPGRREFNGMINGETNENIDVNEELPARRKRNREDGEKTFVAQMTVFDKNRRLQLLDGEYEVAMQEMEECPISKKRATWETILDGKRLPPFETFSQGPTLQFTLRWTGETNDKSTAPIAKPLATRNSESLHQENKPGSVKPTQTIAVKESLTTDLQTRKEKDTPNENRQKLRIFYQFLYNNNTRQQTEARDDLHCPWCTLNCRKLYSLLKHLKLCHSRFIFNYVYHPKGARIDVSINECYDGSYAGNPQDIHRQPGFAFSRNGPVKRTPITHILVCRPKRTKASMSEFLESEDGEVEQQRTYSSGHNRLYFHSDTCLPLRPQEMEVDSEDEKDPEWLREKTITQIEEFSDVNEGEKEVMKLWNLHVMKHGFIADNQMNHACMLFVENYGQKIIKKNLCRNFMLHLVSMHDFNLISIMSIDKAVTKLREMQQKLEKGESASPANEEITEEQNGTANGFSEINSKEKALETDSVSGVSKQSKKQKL
# T1 sequence (Q09028 whole entry partner): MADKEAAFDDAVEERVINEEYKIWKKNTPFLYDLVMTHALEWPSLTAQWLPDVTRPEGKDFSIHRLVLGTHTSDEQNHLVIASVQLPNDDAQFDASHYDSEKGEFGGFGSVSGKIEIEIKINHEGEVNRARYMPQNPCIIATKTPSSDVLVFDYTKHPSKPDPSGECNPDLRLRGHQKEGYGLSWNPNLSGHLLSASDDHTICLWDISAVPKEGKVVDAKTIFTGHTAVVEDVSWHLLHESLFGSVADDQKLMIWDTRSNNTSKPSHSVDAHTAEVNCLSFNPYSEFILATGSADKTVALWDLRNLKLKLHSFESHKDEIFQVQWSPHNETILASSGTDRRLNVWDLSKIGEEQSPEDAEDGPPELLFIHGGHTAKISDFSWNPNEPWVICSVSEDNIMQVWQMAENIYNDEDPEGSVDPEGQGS
# T1 sequence (Q6ZN18 whole entry partner): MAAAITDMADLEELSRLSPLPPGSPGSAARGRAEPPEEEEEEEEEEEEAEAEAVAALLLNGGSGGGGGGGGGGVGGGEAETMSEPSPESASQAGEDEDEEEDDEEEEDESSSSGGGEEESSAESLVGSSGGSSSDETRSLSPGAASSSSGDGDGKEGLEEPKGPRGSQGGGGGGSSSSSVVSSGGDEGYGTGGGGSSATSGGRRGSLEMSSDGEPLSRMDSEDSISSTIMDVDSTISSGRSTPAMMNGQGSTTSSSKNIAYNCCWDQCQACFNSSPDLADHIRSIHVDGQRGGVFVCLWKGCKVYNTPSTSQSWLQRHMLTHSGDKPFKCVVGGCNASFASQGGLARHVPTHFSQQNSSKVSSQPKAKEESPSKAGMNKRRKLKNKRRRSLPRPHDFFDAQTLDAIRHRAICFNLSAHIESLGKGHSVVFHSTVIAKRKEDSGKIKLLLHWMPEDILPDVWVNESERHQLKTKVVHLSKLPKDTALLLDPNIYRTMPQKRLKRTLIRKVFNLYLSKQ
Compound,IC50 [1] [nM],IC50 [2] [nM]
"Cc1cc(C)c(CNC(=O)c2csc(N3CCCC3C)c2C)c(=O)[nH]1 (stereo not shown) [Example 25, N-((4,6-Dimethyl-2-oxo-1,2-dihydropyridin-3-yl)methyl)-4-methyl-5-(2-methylpyrrolidin-1-yl)thiophene-3-carboxamide]",630,100
"Cc1cc(C)c(CNC(=O)c2csc(C(C)N3CCOCC3)c2C)c(=O)[nH]1 (stereo not shown) [Example 26, N-((4,6-dimethyl-2-oxo-1,2-dihydropyridin-3-yl)methyl)-4-methyl-5-(1-morpholinoethyl)thiophene-3-carboxamide]",5010,630
"Cc1cc(C)c(CNC(=O)c2csc(C(C)N3CCC(N(C)C)CC3)c2C)c(=O)[nH]1 (stereo not shown) [Example 27, N-((4,6-dimethyl-2-oxo-1,2-dihydropyridin-3-yl)methyl)-5-(1-(4-(dimethylamino)piperidin-1-yl)ethyl)-4-methylthiophene-3-carboxamide hydrochloride]",63,31
"CCC(c1scc(C(=O)NCc2c(C)cc(C)[nH]c2=O)c1C)N1CCC(N(C)C)CC1 (stereo not shown) [Example 28, N-((4,6-dimethyl-2-oxo-1,2-dihydropyridin-3-yl)methyl)-5-(1-(4-(dimethylamino)piperidin-1-yl)propyl)-4-methylthiophene-3-carboxamide]",63,19
"CCC(c1scc(C(=O)NCc2c(C)cc(C)[nH]c2=O)c1C)N1CCOCC1 (stereo not shown) [Example 29, N-((4,6-dimethyl-2-oxo-1,2-dihydropyridin-3-yl)methyl)-4-methyl-5-(1-morpholinopropyl)thiophene-3-carboxamide]",3160,398
"CCN(c1ccc(C(=O)NCc2c(C)cc(C)[nH]c2=O)s1)C1CCOCC1 [Example 30, N-((4,6-Dimethyl-2-oxo-1,2-dihydropyridin-3-yl)methyl)-5-(ethyl(tetrahydro-2H-pyran-4-yl)amino)thiophene-2-carboxamide]",≥ 100000,39800
"CCN(c1scc(C(=O)NCc2c(C)cc(C)n(C)c2=O)c1C)C1CCOCC1 [Example 31, 5-(Ethyl(tetrahydro-2H-pyran-4-yl)amino)-4-methyl-N-((1,4,6-trimethyl-2-oxo-1,2-dihydropyridin-3-yl)methyl)thiophene-3-carboxamide]",794,100
"CCN(c1scc(C(=O)NCc2c(C)cc(C)n(C)c2=O)c1C)[C@H]1CC[C@H](N(C)C)CC1 [Example 32, 5-(((trans)-4-(Dimethylamino)cyclohexyl)(ethyl)amino)-4-methyl-N-((1,4,6-trimethyl-2-oxo-1,2-dihydropyridin-3-yl)methyl)thiophene-3-carboxamide]",50,≤ 10

# — patent US9505745B2, “Enhancer of zeste homolog 2 inhibitors” (GlaxoSmithKline Intellectual Property (No.2) Limited, priority 2013, dated 2016)
